One test concerns the target T1, Coagulation factor XII (Homo sapiens, UniProt P00748).
T1 sequence (P00748 whole entry): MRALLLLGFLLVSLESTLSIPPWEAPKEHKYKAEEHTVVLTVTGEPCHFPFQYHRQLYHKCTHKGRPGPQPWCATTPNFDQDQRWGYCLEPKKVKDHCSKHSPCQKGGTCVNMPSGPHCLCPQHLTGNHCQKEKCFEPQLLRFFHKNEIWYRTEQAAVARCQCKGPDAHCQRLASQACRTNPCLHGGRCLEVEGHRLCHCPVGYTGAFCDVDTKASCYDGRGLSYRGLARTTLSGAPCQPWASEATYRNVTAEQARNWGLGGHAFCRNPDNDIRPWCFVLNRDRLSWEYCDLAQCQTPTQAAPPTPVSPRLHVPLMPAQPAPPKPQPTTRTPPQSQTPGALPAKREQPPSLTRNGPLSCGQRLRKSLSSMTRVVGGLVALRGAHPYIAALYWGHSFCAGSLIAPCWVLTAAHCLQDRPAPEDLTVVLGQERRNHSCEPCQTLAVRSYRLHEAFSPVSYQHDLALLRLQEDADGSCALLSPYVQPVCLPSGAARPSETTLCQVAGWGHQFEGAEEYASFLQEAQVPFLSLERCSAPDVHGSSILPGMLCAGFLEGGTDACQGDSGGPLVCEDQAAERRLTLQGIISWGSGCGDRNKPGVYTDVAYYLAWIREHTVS
Briefly: activated coagulation factor XII inhibitor potency, concentration-effect curve, cell-free (AID 716). The format is functional.

The target in test [1] is T2, Kappa-type opioid receptor (Homo sapiens, UniProt P41145). The test is described as follows: SAR analysis of small molecule antagonists of the kappa opioid receptor via a luminescent beta-arrestin assay - Set 3. [Related pubchem assays (depositor defined):AID1777, AID1778, AID1785, AID1786, AID1966, AID2133, AID2136, AID2285, AID2495]. The format is functional.
For test [2], the target named is Delta-type opioid receptor (Homo sapiens, UniProt P41143). Briefly: SAR Analysis of Antagonists of the DOR Receptor using an Image-Based Assay - Set 3. [Related pubchem assays (depositor defined):AID1777, AID1785]. The format is functional.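 Further: U2OS cells expressing DOR1 and beta-arrestin GFP stimulated with 100 nM SNC80; imaging of GFP-tagged beta-arrestin moving into spots after receptor activation.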
The target in test [3] is T2, Kappa-type opioid receptor. Briefly: SAR analysis of Antagonists of the Kappa Opioid Receptor (KOR) using an Image-Based Assay - Set 3. [Related pubchem assays (depositor defined):AID1777, AID1785]. The format is functional.
The target of another test is Mu-type opioid receptor (Homo sapiens, UniProt P35372). Briefly: SAR Analysis of Antagonists of the MOR Receptor using an Image-Based Assay - Set 3. [Related pubchem assays (depositor defined):AID1777, AID1785, AID1786, AID1966, AID2133, AID2136, AID2284, AID2285, AID2420]. The format is functional.
In a further test the target is Mucolipin-3 (Homo sapiens, UniProt Q8TDD5). Briefly: Fluorescence counterscreen assay for […] agonists: dose response cell-based high-throughput screening assay to identify agonists of the transient receptor potential channel ML3 (TRPML3). [Related pubchem assays: 1424, 1448 ]. The format is functional.
The nature of test [4]: Counterscreen for AddAB inhibitors: absorbance-based bacterial cell-based high throughput dose response assay for inhibitors of bacterial viability. [Related pubchem assays (depositor defined):AID435030, AID449728, AID449731, AID488942, AID488955, AID488956]. The format is functional. For orientation: A counterscreen serves to expose hits that act by an unwanted route or on another target.

Another test deals with Ion channel NompC (Danio rerio, UniProt Q7T1G6). The test is described as follows: Dose response cell-based high-throughput screening assay for agonists of the transient receptor potential channel N1 (TRPN1). [Related pubchem assays (depositor defined):AID1424, AID1448]. The format is functional.
The target in test [5] is T3, Short transient receptor potential channel 4 (Mus musculus, UniProt Q9QUQ5).
T3 sequence (Q9QUQ5 whole entry): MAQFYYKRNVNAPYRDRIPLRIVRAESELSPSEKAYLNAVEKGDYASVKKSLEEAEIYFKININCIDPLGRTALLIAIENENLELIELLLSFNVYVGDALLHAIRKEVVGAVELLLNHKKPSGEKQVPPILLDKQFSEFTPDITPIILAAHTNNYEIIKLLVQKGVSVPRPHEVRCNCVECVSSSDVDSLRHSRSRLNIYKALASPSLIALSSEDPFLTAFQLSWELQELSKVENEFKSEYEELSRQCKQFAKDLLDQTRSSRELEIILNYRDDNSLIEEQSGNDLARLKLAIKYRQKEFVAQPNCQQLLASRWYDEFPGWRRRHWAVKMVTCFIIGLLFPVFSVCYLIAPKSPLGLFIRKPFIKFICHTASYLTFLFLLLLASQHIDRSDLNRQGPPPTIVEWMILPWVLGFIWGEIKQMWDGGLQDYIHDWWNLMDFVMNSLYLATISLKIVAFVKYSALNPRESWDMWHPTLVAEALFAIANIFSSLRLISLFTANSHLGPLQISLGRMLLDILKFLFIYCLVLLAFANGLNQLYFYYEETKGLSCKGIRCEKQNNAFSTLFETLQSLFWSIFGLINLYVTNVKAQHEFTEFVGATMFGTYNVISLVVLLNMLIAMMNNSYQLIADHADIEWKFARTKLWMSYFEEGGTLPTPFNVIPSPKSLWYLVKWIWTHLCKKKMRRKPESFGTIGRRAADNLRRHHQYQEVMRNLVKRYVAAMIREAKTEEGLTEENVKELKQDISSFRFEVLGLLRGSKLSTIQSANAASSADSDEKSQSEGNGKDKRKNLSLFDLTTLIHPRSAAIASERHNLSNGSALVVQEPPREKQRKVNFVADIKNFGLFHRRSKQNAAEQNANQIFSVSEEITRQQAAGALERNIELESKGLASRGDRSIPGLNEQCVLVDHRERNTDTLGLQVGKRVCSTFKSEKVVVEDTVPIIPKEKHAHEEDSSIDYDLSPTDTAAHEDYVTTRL
Briefly: calcium entry via TRPC4 opening agents – cell-based, HEK293 TRPC4/mu-opioid, Fluo-4 calcium, dose response (AID 434937). The test is classed as functional.

Another test has as its target Exodeoxyribonuclease V (Escherichia coli (strain K12), UniProt P04993+P07648+P08394). The test is described as follows: RecBCD inhibition via phage-restricted bacterial growth – absorbance, V66 E. coli, mutant T4 phage, counter-screen for AddAB inhibitor project, dose response (AID 492957). The format is functional, cell-based, Escherichia coli str. K-12 substr. MG1655.

Test [6] is described as follows: PhoP promoter GFP reporter reduction in Typhimurium – purified and synthesized compounds, set 2, PhoP regulon inhibitor project, dose response (AID 2831). The test is classed as functional.
In a further test the test system is Vero. Briefly: cells. The test is classed as functional. Particulars: Chlorocebus sabaeus.

The structures appear in SMILES notation. The source made the active and inactive calls.

T2 sequence (P41145 whole entry): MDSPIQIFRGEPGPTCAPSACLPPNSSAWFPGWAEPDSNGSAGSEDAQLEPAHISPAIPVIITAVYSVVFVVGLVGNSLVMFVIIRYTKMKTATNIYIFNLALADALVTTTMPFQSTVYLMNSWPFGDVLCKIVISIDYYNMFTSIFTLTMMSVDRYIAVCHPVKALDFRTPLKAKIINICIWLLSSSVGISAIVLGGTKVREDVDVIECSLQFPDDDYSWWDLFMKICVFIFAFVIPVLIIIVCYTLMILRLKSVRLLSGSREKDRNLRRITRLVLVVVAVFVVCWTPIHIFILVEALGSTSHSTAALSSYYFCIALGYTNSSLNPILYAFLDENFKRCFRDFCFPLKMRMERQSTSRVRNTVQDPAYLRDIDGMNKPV
Mu-type opioid receptor, sequence (P35372 whole entry): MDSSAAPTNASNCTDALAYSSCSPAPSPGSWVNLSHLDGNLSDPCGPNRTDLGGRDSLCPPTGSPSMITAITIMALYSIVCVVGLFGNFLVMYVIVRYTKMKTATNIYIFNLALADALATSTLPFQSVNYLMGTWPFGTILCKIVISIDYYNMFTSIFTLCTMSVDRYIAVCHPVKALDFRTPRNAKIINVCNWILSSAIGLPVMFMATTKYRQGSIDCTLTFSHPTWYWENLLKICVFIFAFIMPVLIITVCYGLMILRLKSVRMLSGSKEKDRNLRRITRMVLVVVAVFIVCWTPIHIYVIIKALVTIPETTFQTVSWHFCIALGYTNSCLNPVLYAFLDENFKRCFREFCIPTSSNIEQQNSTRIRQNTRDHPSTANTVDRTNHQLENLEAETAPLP
Ion channel NompC, sequence (Q7T1G6 whole entry): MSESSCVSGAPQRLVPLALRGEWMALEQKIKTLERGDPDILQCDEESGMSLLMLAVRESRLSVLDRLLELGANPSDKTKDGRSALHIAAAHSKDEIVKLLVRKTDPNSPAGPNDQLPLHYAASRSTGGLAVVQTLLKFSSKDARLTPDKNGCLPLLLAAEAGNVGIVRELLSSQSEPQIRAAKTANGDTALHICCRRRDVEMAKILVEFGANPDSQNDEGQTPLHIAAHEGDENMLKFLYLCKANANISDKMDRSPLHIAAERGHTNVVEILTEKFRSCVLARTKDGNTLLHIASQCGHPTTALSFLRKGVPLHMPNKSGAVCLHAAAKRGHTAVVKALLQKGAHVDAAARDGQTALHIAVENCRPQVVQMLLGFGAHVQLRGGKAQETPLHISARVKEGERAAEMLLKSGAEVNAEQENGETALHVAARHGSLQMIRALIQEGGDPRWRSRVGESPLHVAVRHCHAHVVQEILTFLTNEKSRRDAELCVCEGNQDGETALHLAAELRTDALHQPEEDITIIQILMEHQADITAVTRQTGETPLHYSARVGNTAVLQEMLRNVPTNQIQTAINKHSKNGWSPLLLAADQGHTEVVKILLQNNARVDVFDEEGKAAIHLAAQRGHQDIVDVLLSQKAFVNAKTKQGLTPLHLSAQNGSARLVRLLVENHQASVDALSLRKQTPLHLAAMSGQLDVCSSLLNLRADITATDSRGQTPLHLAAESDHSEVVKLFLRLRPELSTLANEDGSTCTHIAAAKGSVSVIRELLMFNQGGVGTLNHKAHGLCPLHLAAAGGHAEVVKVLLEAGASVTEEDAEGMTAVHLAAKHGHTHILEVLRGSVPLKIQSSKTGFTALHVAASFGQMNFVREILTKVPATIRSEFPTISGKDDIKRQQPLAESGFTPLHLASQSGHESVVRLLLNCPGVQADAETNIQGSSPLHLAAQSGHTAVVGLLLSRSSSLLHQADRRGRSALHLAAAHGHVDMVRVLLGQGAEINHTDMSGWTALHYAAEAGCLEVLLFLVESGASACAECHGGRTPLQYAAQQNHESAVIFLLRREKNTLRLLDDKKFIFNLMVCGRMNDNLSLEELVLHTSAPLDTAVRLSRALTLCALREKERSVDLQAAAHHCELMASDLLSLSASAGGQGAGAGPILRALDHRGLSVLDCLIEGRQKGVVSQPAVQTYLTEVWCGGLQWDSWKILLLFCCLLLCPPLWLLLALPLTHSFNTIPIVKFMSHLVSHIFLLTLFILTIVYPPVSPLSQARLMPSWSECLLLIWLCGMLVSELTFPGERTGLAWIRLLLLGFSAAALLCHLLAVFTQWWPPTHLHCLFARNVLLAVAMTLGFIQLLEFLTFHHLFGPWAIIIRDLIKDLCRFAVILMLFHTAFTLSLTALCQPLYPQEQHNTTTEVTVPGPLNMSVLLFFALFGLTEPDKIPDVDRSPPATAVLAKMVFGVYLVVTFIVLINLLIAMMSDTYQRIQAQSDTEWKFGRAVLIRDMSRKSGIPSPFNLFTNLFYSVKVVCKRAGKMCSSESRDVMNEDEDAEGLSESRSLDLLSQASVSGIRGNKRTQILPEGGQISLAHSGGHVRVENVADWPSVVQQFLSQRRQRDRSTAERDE
Mucolipin-3, sequence (Q8TDD5 whole entry): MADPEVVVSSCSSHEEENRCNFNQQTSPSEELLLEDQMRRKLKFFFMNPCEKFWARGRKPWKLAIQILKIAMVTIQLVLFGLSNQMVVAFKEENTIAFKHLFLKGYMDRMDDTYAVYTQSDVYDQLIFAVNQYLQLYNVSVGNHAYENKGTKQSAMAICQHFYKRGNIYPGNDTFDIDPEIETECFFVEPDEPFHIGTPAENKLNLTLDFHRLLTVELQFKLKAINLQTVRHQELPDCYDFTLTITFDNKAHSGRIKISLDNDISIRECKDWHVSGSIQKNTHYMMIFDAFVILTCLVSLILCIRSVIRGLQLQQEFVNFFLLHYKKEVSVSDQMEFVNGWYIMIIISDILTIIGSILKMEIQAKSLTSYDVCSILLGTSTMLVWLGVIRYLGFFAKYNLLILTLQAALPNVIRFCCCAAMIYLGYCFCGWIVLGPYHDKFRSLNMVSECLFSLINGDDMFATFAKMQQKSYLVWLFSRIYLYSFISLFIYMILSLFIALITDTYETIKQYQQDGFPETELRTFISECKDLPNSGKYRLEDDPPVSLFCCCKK
Delta-type opioid receptor, sequence (P41143 whole entry): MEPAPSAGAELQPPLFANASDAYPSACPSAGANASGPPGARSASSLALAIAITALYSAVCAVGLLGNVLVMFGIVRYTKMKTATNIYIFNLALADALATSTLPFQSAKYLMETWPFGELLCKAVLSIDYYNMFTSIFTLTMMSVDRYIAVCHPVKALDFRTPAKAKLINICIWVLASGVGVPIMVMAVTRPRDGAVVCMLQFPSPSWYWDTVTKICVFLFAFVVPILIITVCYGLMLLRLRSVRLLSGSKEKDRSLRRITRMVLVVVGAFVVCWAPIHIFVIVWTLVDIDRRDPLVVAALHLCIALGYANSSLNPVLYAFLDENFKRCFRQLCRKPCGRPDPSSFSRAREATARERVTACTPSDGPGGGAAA

Usually IC50 stands for the concentration that inhibits the measured activity by half. With `COc1ccc(-c2nnc(SCC(=O)Nc3cc(C)on3)n2N)cc1OC`, the IC50 on Coagulation factor XII is > 50 µM (inactive).
In the case of `Cc1ccc(S(=O)(=O)NCc2ccc(C(=O)NCCN3Cc4ccccc4C3)cc2)cc1`, the IC50 in test [1] is > 20 µM (inactive); in [2], > 32 µM (inactive); in [3], > 32 µM (inactive); on Mu-type opioid receptor, > 32 µM (inactive).
For orientation: EC50 means the concentration at which the effect is half-maximal. As usually defined, the CC50 is the concentration giving 50% cytotoxicity. As for `O=C(Nc1nnc(-c2cccs2)o1)c1cccc(C(F)(F)F)c1`, the EC50 on Mucolipin-3 is 4.5 µM (active); at Ion channel NompC, 3.33 µM (active); in [5], 11.9 µM (active). The IC50 is > 39.5 µM (inactive) in test [4], 68.2 µM (inactive) on Exodeoxyribonuclease V and > 125 µM (active) in test [6]. Besides, the CC50 with Vero was > 25 µM (active).

The values above are taken from ChEMBL document CHEMBL1201862, “PubChem BioAssay data set” (2004).
